# Reference: patent publication US20220041559A1, “BENZO-AND PYRIDO-PYRAZOLES AS PROTEIN KINASE INHIBITORS” (ROTTAPHARM BIOTECH S.R.L., priority 2019, published 2022)
# What was measured:
# FYN = target: T1, FYN (Homo sapiens, UniProt P06241); test: Z'-LYTE in vitro kinase assay, FYN kinase inhibition; type: biochemical
# T1 construct: purchased CarnaBioscience
# How it was run: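 Active FYN incubated with Z′-LYTE Tyr 2 peptide, near-Km ATP and compound (10^−10 to 10^−5 M final, 1% DMSO) in 50 mM Hepes pH 7.5, 10 mM MgCl2, 1 mM EGTA, 0.01% Brij-35, 60 min at 25° C. Protease development then coumarin/fluorescein FRET readout gives % phosphorylation; IC50 by non-linear fitting.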
# U87MG = test: Cell viability, ViaCount assay, U87MG; type: cell-based, human; conditions: tested cell lines (U87MG, U373)
# Method: U87MG: a human glioblastoma astrocytoma from ATCC. Grown in DMEM medium supplemented with 10% FBS at 37° C. with CO2.
# Cell viability and total cell count was performed with ViaCount Assay on Guava® Systems, which was able to distinguish viable and non-viable cells based on differential permeabilities of two DNA-binding dyes in the Guava ViaCount® Reagent. 2×10^4 cancer cells were plated in 24 well in DMEM 10%. After 72 h cells were treated with the different compounds for 24, 72 h or 7 days, with a medium change and a second treatment with the product on day 4. At the end of the incubation period the analysis was done following the kit instructions.
# U87MG xenograft = test: Survival time of intracranial U87MG glioblastoma bearing mice; type: in vivo, athymic Nude mice; conditions: 50 mg/kg orally once a day, day 9 until day 19
# Method: Human U87MG cancer cell line were implanted in athymic Nude mice by intracranial injection. Mice, divided into two groups, were orally dosed for 10 days either with vehicle or with Compound 5 (50 mg/kg, once a day) from the day 9 until day 19 after injection of tumour cells. The animal survival was tracked over time, mice were monitored for mortality and sacrificed at appearance of signs of distress, neurological deficits, seizure, or significant body weight loss (e.g. >20%).
# EGFR = EGFR (Homo sapiens, UniProt P00533); test: ADP-Glo in vitro kinase assay, EGFR kinase inhibition; type: biochemical; set-up: purchased SignalChem
# Method: The ADP-Glo™ Kinase Assay (Promega), monitoring ADP produced in the kinase reaction, was performed in two steps. In the first one, after the kinase reaction, the ADP-Glo™ Reagent is added to terminate the kinase reaction and deplete the remaining ATP. In the second step, the Kinase Detection Reagent is added to simultaneously convert ADP to ATP (ATPn or newly synthesized ATP) and introduce luciferase and luciferin, allowing the ATPn to be measured (luciferase/luciferin reaction). The amount of light generated correlates with the amount of ATPn (indirectly with the ADP produced in kinase reaction).
# Kinase reaction was performed in 10 μl in a white 384-well plate, inhibitor solutions in DMSO/Kinase buffer (40 mM Tris-Cl, 20 mM MgCl2, 0.1 mg/ml BSA, 50 μM DTT, pH 7.5) and EGFR kinase in Kinase buffer (SignalChem, 2.5 ng/μl final concentration in assay) were pre-incubate 15 minutes at room temperature. At the kinase concentration selected a signal-to negative control ratio >10 was calculated, according to supplier indication. In samples representing the Total enzymatic activity (no inhibitor) or the negative control (no enzyme), inhibitor solution was replaced by diluents (1 DMSO in kinase buffer, final concentration) or ultra-pure water, respectively.
# The range of inhibitor concentrations was from 10^−11 M up to 3×10^−6 M (final concentration in assay) and each experimental point was performed in duplicate.
# To start the reaction, a substrate/ATP mix (ATP 10 μM final concentration, near to ATP Km value) was added to each sample and after 30 minutes incubation at room temperature, ADP-Glo™ Reagent and Kinase Detection Reagent, incubated in sequence according to the respective incubation time and supplier indication, allowed to stop and develop the kinase reaction. The luminescence was measured with a plate-reading luminometer (Envision 2104 Multilabel reader, PerkinElmer). The percentage of inhibition was calculated towards the Total enzymatic activity and the corresponding curves were analyzed by non linear curve fitting (GraphPad software, version 7 for Windows), allowing to calculate the IC50 value±standard error of the estimate.
# T1 sequence (P06241 whole entry): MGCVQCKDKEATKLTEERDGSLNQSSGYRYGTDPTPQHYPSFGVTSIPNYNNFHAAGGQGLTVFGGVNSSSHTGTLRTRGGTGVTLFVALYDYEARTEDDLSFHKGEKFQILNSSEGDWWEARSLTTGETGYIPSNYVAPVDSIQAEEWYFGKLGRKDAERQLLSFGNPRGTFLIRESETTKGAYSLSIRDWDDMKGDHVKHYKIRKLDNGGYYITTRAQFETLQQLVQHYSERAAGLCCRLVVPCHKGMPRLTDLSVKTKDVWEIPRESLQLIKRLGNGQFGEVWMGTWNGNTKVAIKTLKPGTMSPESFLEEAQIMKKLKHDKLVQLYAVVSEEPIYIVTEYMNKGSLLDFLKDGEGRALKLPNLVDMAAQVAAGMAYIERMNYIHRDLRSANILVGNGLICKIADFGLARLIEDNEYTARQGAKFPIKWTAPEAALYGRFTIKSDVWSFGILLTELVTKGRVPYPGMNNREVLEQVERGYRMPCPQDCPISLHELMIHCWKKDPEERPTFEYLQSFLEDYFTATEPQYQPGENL
# EGFR, sequence (P00533 25-1210): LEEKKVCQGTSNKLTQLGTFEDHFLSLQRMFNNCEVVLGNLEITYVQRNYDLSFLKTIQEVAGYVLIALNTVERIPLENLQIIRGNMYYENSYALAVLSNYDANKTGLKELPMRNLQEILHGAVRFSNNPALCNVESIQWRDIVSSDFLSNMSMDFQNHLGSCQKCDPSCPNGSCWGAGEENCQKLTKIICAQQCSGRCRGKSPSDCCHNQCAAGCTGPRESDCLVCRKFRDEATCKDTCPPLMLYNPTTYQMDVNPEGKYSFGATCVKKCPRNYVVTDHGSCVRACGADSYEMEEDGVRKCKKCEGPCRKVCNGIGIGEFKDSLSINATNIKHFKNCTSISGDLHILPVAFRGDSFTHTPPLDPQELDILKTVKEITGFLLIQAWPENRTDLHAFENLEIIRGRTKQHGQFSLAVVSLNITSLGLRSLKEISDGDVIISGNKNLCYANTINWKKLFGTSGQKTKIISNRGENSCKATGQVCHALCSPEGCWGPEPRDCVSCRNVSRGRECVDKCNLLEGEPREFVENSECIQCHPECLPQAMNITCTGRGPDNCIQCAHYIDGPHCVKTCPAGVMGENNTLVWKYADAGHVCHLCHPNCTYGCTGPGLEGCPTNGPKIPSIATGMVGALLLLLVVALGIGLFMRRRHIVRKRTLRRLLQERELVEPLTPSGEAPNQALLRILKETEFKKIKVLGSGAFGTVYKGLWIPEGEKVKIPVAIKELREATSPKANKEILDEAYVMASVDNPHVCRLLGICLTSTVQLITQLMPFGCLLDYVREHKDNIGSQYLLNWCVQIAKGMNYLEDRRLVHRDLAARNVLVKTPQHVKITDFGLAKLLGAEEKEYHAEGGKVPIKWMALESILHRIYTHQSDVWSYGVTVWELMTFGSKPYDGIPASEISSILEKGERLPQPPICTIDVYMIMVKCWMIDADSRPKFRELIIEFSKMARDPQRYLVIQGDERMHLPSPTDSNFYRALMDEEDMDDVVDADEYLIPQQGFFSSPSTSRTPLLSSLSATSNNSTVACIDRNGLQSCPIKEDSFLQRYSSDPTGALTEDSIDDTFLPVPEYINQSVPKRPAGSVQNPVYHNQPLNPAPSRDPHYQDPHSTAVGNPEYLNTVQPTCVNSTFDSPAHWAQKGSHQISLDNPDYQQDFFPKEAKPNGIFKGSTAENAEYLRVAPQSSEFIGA
compound,measurement,setting,value
"CN1CCC(c2ccc(C(=O)Nc3n[nH]c4nc(Nc5ccccc5F)ccc34)cc2)CC1 [Compound 5, N-(6-((2-fluorophenyl)amino)-1H-pyrazolo[3,4-b]pyridin-3-yl)-4-(1-methylpiperidin-4-yl)benzamide]","FYN kinase inhibition, result in words",FYN; Table 17,more active
same,IC50,"FYN; near-Km ATP, 60 minutes at 25° C.",69 nM
same,"reduction of cell viability, result in words",U87MG,active in reducing cell viability
same,median survival time from tumour cell injection,U87MG xenograft,70 days
same,IC50,"EGFR; ATP 10 μM, 30 minutes at room temperature",6 nM
same,"EGFR kinase inhibition, result in words",EGFR; text summary of Table 18,more active
